Measured values from patent US20240124444A1 (Celgene Corporation, priority 2020, published 2024).
Where two headings read alike, the source gives them in different places.

System: C. parvum strain UGA1
Assay: C. parvum growth inhibition assay (Nluc luminescence in HCT-8 cells)
Format: cell-based, Cryptosporidium parvum
Conditions: for EC50: C. parvum growth inhibition in HCT-8 cells, 48 hours, 6 concentrations 10-0.04 μM; for inhibition at 1 µM / inhibition at 10 µM: HCT-8; for inhibition at 1 µM: read-out: % inh @ 1 uM C. parvum; for inhibition at 10 µM: read-out: % inh @ 10 uM C. parvum
[1] = Cryptosporidium parvum, HCT-8, 48 h
[2] = Cryptosporidium parvum, single point inhibition @ 1 uM
[3] = Cryptosporidium parvum, single point inhibition @ 10 uM
[4] = Cryptosporidium parvum, single point inhibition at 1 uM
[5] = Cryptosporidium parvum, single point inhibition at 10 uM

Compound Cc1nccc(-c2cc3cnc(NC4CCOCC4)cc3n2C)n1 [Example 378, 1-methyl-2-(2-methylpyrimidin-4-yl)-N-(tetrahydro-2H-pyran-4-yl)-1H-pyrrolo[3,2-c]pyridin-6-amine] has an EC50 [1] greater than 1 µM.

Work on Cn1cc(Nc2cc3[nH]c(-c4ccnc(C#N)c4)cc3cn2)cn1 [Example 56, 4-(6-(1-methyl-1H-pyrazol-4-ylamino)-1H-pyrrolo[3,2-c]pyridin-2-yl)picolinonitrile] yielded an EC50 [1] greater than 1 µM, an inhibition at 1 µM [2] of 0 to 33% and an inhibition at 10 µM [3] of 67 to 100%.

In the case of Cc1cc(-c2cc3cnc(NC4CCOCC4)cc3n2C)ccn1 [Example 59, 1-methyl-2-(2-methylpyridin-4-yl)-N-(tetrahydro-2H-pyran-4-yl)-1H-pyrrolo[3,2-c]pyridin-6-amine], the EC50 [1] is reported as greater than 1 µM.

Cc1cc(-c2cc3cnc(NC(=O)C4CC4)cc3n2CCO)ncn1 [Example 55, N-(1-(2-hydroxyethyl)-2-(6-methylpyrimidin-4-yl)-1H-pyrrolo[3,2-c]pyridin-6-yl)cyclopropanecarboxamide] gave an EC50 [1] greater than 1 µM.

COc1nccc(-c2cc3cnc(NC(=O)c4cc(C)n(C)n4)cc3[nH]2)n1 [Example 292, N-(2-(2-methoxypyrimidin-4-yl)-1H-pyrrolo[3,2-c]pyridin-6-yl)-1,5-dimethyl-1H-pyrazole-3-carboxamide] was tested, and the inhibition at 1 µM [4] was 0 to 33% and the inhibition at 10 µM [5] was 0 to 33%.

Cc1cc(-c2cc3cnc(NC(=O)c4ncoc4C)cc3[nH]2)ccn1 [Example 290, 5-methyl-N-(2-(2-methylpyridin-4-yl)-1H-pyrrolo[3,2-c]pyridin-6-yl)oxazole-4-carboxamide] showed an inhibition at 1 µM [4] of 0 to 33% and an inhibition at 10 µM [5] of 0 to 33%.

With Cc1cc(-c2cc3cnc(NC(=O)c4cnn(C5CCOC5)c4)cc3[nH]2)ccn1 (centres unmarked) [Example 236, N-(2-(2-methylpyridin-4-yl)-1H-pyrrolo[3,2-c]pyridin-6-yl)-1-(tetrahydrofuran-3-yl)-1H-pyrazole-4-carboxamide] the inhibition at 1 µM [4] was 33 to 66% and the inhibition at 10 µM [5] was 33 to 66%.

In the case of Cc1cccc(-c2cc3cnc(NC4CCOCC4)cc3[nH]2)c1 [Example 352, N-(tetrahydro-2H-pyran-4-yl)-2-m-tolyl-1H-pyrrolo[3,2-c]pyridin-6-amine], the EC50 [1] is reported as greater than 1 µM.

For Cc1c(C(=O)Nc2cc3[nH]c(-c4ccncc4)cc3cn2)cnn1C [Example 166, 1,5-dimethyl-N-(2-(pyridin-4-yl)-1H-pyrrolo[3,2-c]pyridin-6-yl)-1H-pyrazole-4-carboxamide], the inhibition at 1 µM [2] was 0 to 33% and the inhibition at 10 µM [3] was 67 to 100%.

c1cncc(-c2cc3cnc(NC4CCOCC4)cc3[nH]2)c1 [Example 72, 2-(pyridin-3-yl)-N-(tetrahydro-2H-pyran-4-yl)-1H-pyrrolo[3,2-c]pyridin-6-amine] was tested, and the EC50 [1] was greater than 1 µM, the inhibition at 1 µM [2] was 0 to 33% and the inhibition at 10 µM [3] was 0 to 33%.

For Cn1c(C(F)(F)F)cc2cnc(NC(=O)C3CC3)cc21 [Example 77, N-(1-methyl-2-(trifluoromethyl)-1H-pyrrolo[3,2-c]pyridin-6-yl)cyclopropanecarboxamide], the EC50 [1] was greater than 1 µM.

Compound Cn1cc(C(=O)Nc2cc3c(cn2)cc(-c2ccnc(C(F)(F)F)n2)n3C)cn1 [Example 200, 1-methyl-N-(1-methyl-2-(2-(trifluoromethyl)pyrimidin-4-yl)-1H-pyrrolo[3,2-c]pyridin-6-yl)-1H-pyrazole-4-carboxamide] has an inhibition at 1 µM [4] of 33 to 66% and an inhibition at 10 µM [5] of 67 to 100%.

For Cc1cc(-c2cc3cnc(NC(=O)C(C)C)cc3[nH]2)ccn1 [Example 160, N-(2-(2-methylpyridin-4-yl)-1H-pyrrolo[3,2-c]pyridin-6-yl)isobutyramide], the inhibition at 1 µM [2] was 0 to 33% and the inhibition at 10 µM [3] was 67 to 100%.

Work on Cc1cc(-c2cc3cnc(NC4CCCOC4)cc3[nH]2)ccn1 (stereo in doubt) [Example 356, (R)-2-(2-methylpyridin-4-yl)-N-(tetrahydro-2H-pyran-3-yl)-1H-pyrrolo[3,2-c]pyridin-6-amine] yielded an EC50 of less than 0.5 µM.

Work on Cc1cc(-c2cc3cnc(NC(=O)OC4CCCC4)cc3[nH]2)ccn1 [Example 170, cyclopentyl 2-(2-methylpyridin-4-yl)-1H-pyrrolo[3,2-c]pyridin-6-ylcarbamate] yielded an inhibition at 1 µM [2] of 0 to 33% and an inhibition at 10 µM [3] of 67 to 100%.

COC(=O)Nc1cc2[nH]c(C(F)(F)F)cc2cn1 [Example 107, methyl 2-(trifluoromethyl)-1H-pyrrolo[3,2-c]pyridin-6-ylcarbamate] gave an EC50 [1] greater than 1 µM.

COc1nc(C)cc(-c2cc3cnc(NC(=O)c4cnn(C)c4)cc3[nH]2)n1 [Example 315, N-(2-(2-methoxy-6-methylpyrimidin-4-yl)-1H-pyrrolo[3,2-c]pyridin-6-yl)-1-methyl-1H-pyrazole-4-carboxamide] showed an inhibition at 1 µM [4] of 0 to 33% and an inhibition at 10 µM [5] of 0 to 33%.
